# Results taken from ChEMBL document CHEMBL3046013, “Pyrithiobac reduces control of green foxtail (Setaria viridis) and bristly foxtail (Setaria verticillata) by propaquizafop” (2009).
# Tests used:
# Format in all cases: functional
# Parameters in all cases: scale not given: the % may be the effect or the level left
# [1] = system: Setaria viridis; test: Herbicidal activity against Setaria viridis (green foxtail) assessed as reduction of fresh weight at 75 g ai/ha after 45 days in presence of 68 g ai/ha of pyrithiobac and ammonium sulphate relative to control
# [2] = system: Setaria verticillata; test: Herbicidal activity against Setaria verticillata assessed as reduction of fresh weight at 75 g ai/ha after 45 days relative to control in presence of ammonium sulphate
# [3] = system: Setaria viridis; test: Herbicidal activity against Setaria viridis (green foxtail) assessed as reduction of fresh weight at 75 g ai/ha after 45 days relative to control in presence of ammonium sulphate
# [4] = system: Setaria verticillata; test: Herbicidal activity against Setaria verticillata assessed as reduction of fresh weight at 75 g ai/ha after 45 days in presence of 68 g ai/ha of pyrithiobac treated 1 day before compound challenge relative to control
# [5] = system: Setaria viridis; test: Herbicidal activity against Setaria viridis (green foxtail) assessed as reduction of fresh weight at 75 g ai/ha after 45 days in presence of 68 g ai/ha of pyrithiobac treated 3 days before compound challenge relative to control
# [6] = system: Setaria viridis; test: Herbicidal activity against Setaria viridis (green foxtail) assessed as reduction of fresh weight at 75 g ai/ha after 45 days in presence of 68 g ai/ha of pyrithiobac treated 1 day before compound challenge relative to control
# [7] = system: Setaria verticillata; test: Herbicidal activity against Setaria verticillata assessed as reduction of fresh weight at 75 g ai/ha after 45 days in presence of 68 g ai/ha of pyrithiobac treated 3 days before compound challenge relative to control
# [8] = system: Setaria verticillata; test: Herbicidal activity against Setaria verticillata assessed as reduction of fresh weight at 75 g ai/ha after 45 days in presence of 68 g ai/ha of pyrithiobac treated 1 day after compound challenge relative to control
# [9] = system: Setaria viridis; test: Herbicidal activity against Setaria viridis (green foxtail) assessed as reduction of fresh weight at 75 g ai/ha after 45 days in presence of 68 g ai/ha of pyrithiobac treated 1 day after compound challenge relative to control
# [10] = system: Setaria verticillata; test: Herbicidal activity against Setaria verticillata assessed as reduction of fresh weight at 75 g ai/ha after 45 days in presence of 68 g ai/ha of pyrithiobac treated 3 days after compound challenge relative to control
# [11] = system: Setaria viridis; test: Herbicidal activity against Setaria viridis (green foxtail) assessed as reduction of fresh weight at 75 g ai/ha after 45 days in presence of 68 g ai/ha of pyrithiobac treated 3 days after compound challenge relative to control
# [12] = system: Setaria viridis; test: Herbicidal activity against Setaria viridis (green foxtail) assessed as reduction of fresh weight at 150 g ai/ha after 45 days relative to control
# [13] = system: Setaria viridis; test: Herbicidal activity against Setaria viridis (green foxtail) assessed as reduction of fresh weight at 125 g ai/ha after 45 days in presence of 68 g ai/ha of pyrithiobac relative to control
# [14] = system: Setaria viridis; test: Herbicidal activity against Setaria viridis (green foxtail) assessed as reduction of fresh weight at 125 g ai/ha after 45 days relative to control
# [15] = system: Setaria viridis; test: Herbicidal activity against Setaria viridis (green foxtail) assessed as reduction of fresh weight at 100 g ai/ha after 45 days in presence of 68 g ai/ha of pyrithiobac relative to control
# [16] = system: Setaria viridis; test: Herbicidal activity against Setaria viridis (green foxtail) assessed as reduction of fresh weight at 100 g ai/ha after 45 days relative to control
# [17] = system: Setaria viridis; test: Herbicidal activity against Setaria viridis (green foxtail) assessed as reduction of fresh weight at 75 g ai/ha after 45 days in presence of 68 g ai/ha of pyrithiobac relative to control
# [18] = system: Setaria viridis; test: Herbicidal activity against Setaria viridis (green foxtail) assessed as reduction of fresh weight at 75 g ai/ha after 45 days relative to control
# [19] = system: Setaria verticillata; test: Herbicidal activity against Setaria verticillata assessed as reduction of fresh weight at 150 g ai/ha after 45 days in presence of 68 g ai/ha of pyrithiobac relative to control
# [20] = system: Setaria verticillata; test: Herbicidal activity against Setaria verticillata assessed as reduction of fresh weight at 150 g ai/ha after 45 days relative to control
# [21] = system: Setaria verticillata; test: Herbicidal activity against Setaria verticillata assessed as reduction of fresh weight at 125 g ai/ha after 45 days in presence of 68 g ai/ha of pyrithiobac relative to control
# [22] = system: Setaria verticillata; test: Herbicidal activity against Setaria verticillata assessed as reduction of fresh weight at 125 g ai/ha after 45 days relative to control
# [23] = system: Setaria verticillata; test: Herbicidal activity against Setaria verticillata assessed as reduction of fresh weight at 100 g ai/ha after 45 days in presence of 68 g ai/ha of pyrithiobac relative to control
# [24] = system: Setaria verticillata; test: Herbicidal activity against Setaria verticillata assessed as reduction of fresh weight at 100 g ai/ha after 45 days relative to control
# [25] = system: Setaria verticillata; test: Herbicidal activity against Setaria verticillata assessed as reduction of fresh weight at 75 g ai/ha after 45 days in presence of 68 g ai/ha of pyrithiobac relative to control
# [26] = system: Setaria verticillata; test: Herbicidal activity against Setaria verticillata assessed as reduction of fresh weight at 75 g ai/ha after 45 days relative to control
# [27] = system: Setaria viridis; test: Herbicidal activity against Setaria viridis (green foxtail) assessed as reduction of fresh weight at 150 g ai/ha after 45 days in presence of 68 g ai/ha of pyrithiobac relative to control
smiles,measurement,setting,value
CC(C)=NOCCOC(=O)[C@@H](C)Oc1ccc(Oc2cnc3cc(Cl)ccc3n2)cc1 [PROPAQUIZAFOP],Activity,[1],57%
same,Activity,[2],94%
same,Activity,[3],89%
same,Activity,[4],75%
same,Activity,[5],66%
same,Activity,[6],56%
same,Activity,[7],81%
same,Activity,[8],90%
same,Activity,[9],82%
same,Activity,[10],93%
same,Activity,[11],85%
same,Activity,[12],99%
same,Activity,[13],66%
same,Activity,[14],97%
same,Activity,[15],59%
same,Activity,[16],91%
same,Activity,[17],53%
same,Activity,[18],86%
same,Activity,[19],83%
same,Activity,[20],100%
same,Activity,[21],78%
same,Activity,[22],99%
same,Activity,[23],73%
same,Activity,[24],95%
same,Activity,[25],70%
same,Activity,[26],92%
same,Activity,[27],72%
